“And” between values parts separate entries of the source, which are not always exact repeats. Equal values may be shown once.
Assays:
[1] = molecular target: EcGUS (Escherichia coli GUS) (Escherichia coli, UniProt P05804); assay: biochemical
[2] = molecular target: BdGUS (Bifidobacterium dentium GUS) (Bifidobacterium dentium, UniProt D2Q7B1); assay: biochemical; parameters: GUS activity (hydrolysis rate of MUG) / 1/v: unit not given here
[3] = molecular target: EcGUS (Escherichia coli, UniProt P05804); assay: Isothermal titration calorimetry, EcGUS; assay type: binding; settings: for entropy contribution to binding: sign (positive = favourable); for Kd / ΔG / ΔH / —TΔS: EcGUS, 298 K
[4] = molecular target: T1, GUS activity in live E. coli cells (Escherichia coli, UniProt P05804); assay: GUS activity in live E. coli cells; assay type: cell-based; settings: E. coli cells (OD600 = 1.89) treated for 30 min, then GUS activity measured
T1 construct: endogenous in cells
Method: To examine if inhibitors 2–4 could inhibit GUS activity in vivo, E. coli cells (OD600 = 1.89) were treated with each of 2–4 for 30 min, after which GUS activity was measured. […]; 3, 18.6 nM; and 4, 3.69 nM (Supplementary Fig. 9a). […]. […] Additionally, to evaluate cell viability, E. coli cultures were treated with ampicillin (positive control), DMSO, or inhibitors 2–4 (100 μM) for 6 h.
Supplementary Figure 9 Inhibitors 2–4 sho w in hi biti on ag ai n st G US acti vity in l i ve E. co li cell s. (a) GUS activity was measured in live E. coli. Af t e r E. coli were incubated with DMSO or an inhibitor ( 2–4), GUS activity was measured using 4-methylumbelliferyl-β-glucuronide as the substrate. The release of fluorescent 4-methylumbelliferone was detected at 445 nm (excitation, 345 nm). Compared with the negative c ont rol (DMSO ), […]
[…]. (b) Colony formation assay. None of the inhibitors affected bacterial growth. As a negative control, E. coli cells were incubated with ampicillin (100 μg/mL). Results are expressed as the mean of triplicate samples ± SEM.
(1 picture or pasted object on this page, not shown here)

[5] = molecular target: LgGUS (Lactobacillus gasseri GUS) (Lactobacillus gasseri, UniProt Q9AHJ8); assay: GUS inhibition assay, hydrolysis of 4-methylumbelliferyl-β-glucuronide, LgGUS; assay type: biochemical; parameters: GUS activity (hydrolysis rate of MUG) / 1/v: unit not given here
[6] = [Inhibitor 2] = 3.75 μM, [MUG] 0.375 mM
[7] = [Inhibitor 2] = 3.75 μM, [MUG] 0.75 mM
[8] = [Inhibitor 2] = 3.75 μM, [MUG] 1.5 mM
[9] = [Inhibitor 2] = 3.75 μM, [MUG] 3 mM
[10] = [Inhibitor 2] = 7.5 μM, [MUG] 0.375 mM
[11] = [Inhibitor 2] = 7.5 μM, [MUG] 0.75 mM
[12] = [Inhibitor 2] = 7.5 μM, [MUG] 1.5 mM
[13] = [Inhibitor 2] = 7.5 μM, [MUG] 3 mM
[14] = [Inhibitor 2] = 15 μM, [MUG] 0.375 mM
[15] = [Inhibitor 2] = 15 μM, [MUG] 0.75 mM
[16] = [Inhibitor 2] = 15 μM, [MUG] 1.5 mM
[17] = [Inhibitor 2] = 15 μM, [MUG] 3 mM
[18] = [Inhibitor 2] = 30 μM, [MUG] 0.375 mM
[19] = [Inhibitor 2] = 30 μM, [MUG] 0.75 mM
[20] = [Inhibitor 2] = 30 μM, [MUG] 1.5 mM
[21] = [Inhibitor 2] = 30 μM, [MUG] 3 mM
[22] = Tris buffer (250 mM NaCl, 20 mM Tris, pH 8.0)
[23] = phosphate buffer (250 mM NaCl, 20 mM KH2PO4, 100 mM Na2HPO4, pH 8.0)
[24] = [Inhibitor 2] = 10 μM, [MUG] 0.0375 mM
[25] = [Inhibitor 2] = 10 μM, [MUG] 0.075 mM
[26] = [Inhibitor 2] = 10 μM, [MUG] 0.15 mM
[27] = [Inhibitor 2] = 10 μM, [MUG] 0.3 mM
[28] = [Inhibitor 2] = 20 μM, [MUG] 0.0375 mM
[29] = [Inhibitor 2] = 20 μM, [MUG] 0.075 mM
[30] = [Inhibitor 2] = 20 μM, [MUG] 0.15 mM
[31] = [Inhibitor 2] = 20 μM, [MUG] 0.3 mM
[32] = [Inhibitor 2] = 40 μM, [MUG] 0.0375 mM
[33] = [Inhibitor 2] = 40 μM, [MUG] 0.075 mM
[34] = [Inhibitor 2] = 40 μM, [MUG] 0.15 mM
[35] = [Inhibitor 2] = 40 μM, [MUG] 0.3 mM
[36] = [Inhibitor 2] = 80 μM, [MUG] 0.0375 mM
[37] = [Inhibitor 2] = 80 μM, [MUG] 0.075 mM
[38] = [Inhibitor 2] = 80 μM, [MUG] 0.15 mM
[39] = [Inhibitor 2] = 80 μM, [MUG] 0.3 mM

Chain of LgGUS (Lactobacillus gasseri GUS) (Q9AHJ8 1-598): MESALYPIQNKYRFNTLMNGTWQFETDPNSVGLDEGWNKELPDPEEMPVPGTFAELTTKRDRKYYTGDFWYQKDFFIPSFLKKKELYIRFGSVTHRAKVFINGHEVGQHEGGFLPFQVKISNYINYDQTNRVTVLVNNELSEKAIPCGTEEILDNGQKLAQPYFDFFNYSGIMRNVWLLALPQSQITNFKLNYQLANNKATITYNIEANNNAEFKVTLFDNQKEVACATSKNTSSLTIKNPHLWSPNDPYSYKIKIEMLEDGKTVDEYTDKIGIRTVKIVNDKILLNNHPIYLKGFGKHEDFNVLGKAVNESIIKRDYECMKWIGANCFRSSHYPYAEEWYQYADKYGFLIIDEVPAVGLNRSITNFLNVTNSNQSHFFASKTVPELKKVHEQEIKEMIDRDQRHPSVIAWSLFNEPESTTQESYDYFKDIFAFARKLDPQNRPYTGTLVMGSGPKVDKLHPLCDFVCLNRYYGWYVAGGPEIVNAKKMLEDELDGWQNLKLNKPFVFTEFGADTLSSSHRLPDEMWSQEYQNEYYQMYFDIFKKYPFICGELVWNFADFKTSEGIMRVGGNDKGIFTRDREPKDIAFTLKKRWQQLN
Chain of BdGUS (Bifidobacterium dentium GUS) (D2Q7B1 1-668): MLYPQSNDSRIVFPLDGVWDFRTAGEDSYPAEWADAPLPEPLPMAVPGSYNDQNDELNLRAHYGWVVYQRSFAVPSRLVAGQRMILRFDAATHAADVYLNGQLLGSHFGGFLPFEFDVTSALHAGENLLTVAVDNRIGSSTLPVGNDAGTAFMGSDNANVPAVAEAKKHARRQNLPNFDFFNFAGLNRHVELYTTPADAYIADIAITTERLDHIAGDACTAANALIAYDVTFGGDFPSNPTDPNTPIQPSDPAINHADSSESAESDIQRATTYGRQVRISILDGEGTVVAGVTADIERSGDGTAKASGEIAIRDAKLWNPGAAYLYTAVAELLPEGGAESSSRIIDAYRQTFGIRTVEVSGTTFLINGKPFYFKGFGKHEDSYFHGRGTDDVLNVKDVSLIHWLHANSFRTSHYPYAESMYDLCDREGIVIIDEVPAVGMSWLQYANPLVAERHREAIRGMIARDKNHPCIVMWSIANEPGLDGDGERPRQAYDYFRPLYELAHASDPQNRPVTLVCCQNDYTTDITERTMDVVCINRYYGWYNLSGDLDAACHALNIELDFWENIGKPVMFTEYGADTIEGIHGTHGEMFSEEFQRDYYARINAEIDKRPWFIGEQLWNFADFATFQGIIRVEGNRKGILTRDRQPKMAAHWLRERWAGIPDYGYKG
Chain of EcGUS (P05804 whole entry): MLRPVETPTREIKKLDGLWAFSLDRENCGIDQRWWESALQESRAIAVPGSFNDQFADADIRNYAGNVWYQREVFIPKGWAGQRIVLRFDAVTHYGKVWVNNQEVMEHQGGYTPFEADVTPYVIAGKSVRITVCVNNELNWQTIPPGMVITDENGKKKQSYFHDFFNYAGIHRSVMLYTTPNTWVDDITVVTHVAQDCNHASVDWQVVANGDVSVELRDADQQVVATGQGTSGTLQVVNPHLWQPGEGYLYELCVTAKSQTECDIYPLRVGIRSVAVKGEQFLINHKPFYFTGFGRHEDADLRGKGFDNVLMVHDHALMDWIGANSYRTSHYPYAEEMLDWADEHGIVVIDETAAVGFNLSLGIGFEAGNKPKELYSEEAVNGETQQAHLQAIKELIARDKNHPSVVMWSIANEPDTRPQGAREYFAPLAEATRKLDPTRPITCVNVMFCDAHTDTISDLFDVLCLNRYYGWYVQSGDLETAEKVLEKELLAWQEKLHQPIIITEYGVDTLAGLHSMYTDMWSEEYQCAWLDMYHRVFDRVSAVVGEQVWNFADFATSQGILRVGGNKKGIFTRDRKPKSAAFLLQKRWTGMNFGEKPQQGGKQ
Chain of EcGUS (Escherichia coli GUS) (P05804 whole entry): as above
T1 sequence (P05804 whole entry): as above

Compound: CCC[C@@H]1NC[C@@H](O)[C@H](O)[C@H]1C(=O)O [Inhibitor 2, C6-propyl UIFG]
- Ki ([1]; 50 mM HEPES pH 7.5, 37 °C): 0.035 ± 0.009 µM
- Ki ([1]; source data of Table 1, from plot of apparent Km against [inhibitor] (μM)): 0.0352 µM
- Ki ([2]; BdGUS, 50 mM HEPES pH 7.5, 37 °C): 4900 ± 1200 nM
- 1/v [2, 6]: 0.7586 and 0.7898 and 0.7689
- GUS activity (hydrolysis rate of MUG) [2, 6]: 0.2944 and 0.2827 and 0.2904
- 1/v [2, 7]: 0.5053 and 0.4969 and 0.4765
- GUS activity (hydrolysis rate of MUG) [2, 7]: 0.4419 and 0.4494 and 0.4686
- 1/v [2, 8]: 0.3454 and 0.3517 and 0.3523
- GUS activity (hydrolysis rate of MUG) [2, 8]: 0.6465 and 0.6349 and 0.6338
- 1/v [2, 9]: 0.3078 and 0.2975 and 0.297
- GUS activity (hydrolysis rate of MUG) [2, 9]: 0.7254 and 0.7507 and 0.7517
- 1/v [2, 10]: 0.9443 and 1.067 and 1.0389
- GUS activity (hydrolysis rate of MUG) [2, 10]: 0.2365 and 0.2092 and 0.2149
- 1/v [2, 11]: 0.6301 and 0.6229 and 0.6281
- GUS activity (hydrolysis rate of MUG) [2, 11]: 0.3544 and 0.3585 and 0.3555
- 1/v [2, 12]: 0.4203 and 0.4167 and 0.4011
- GUS activity (hydrolysis rate of MUG) [2, 12]: 0.5313 and 0.5358 and 0.5568
- 1/v [2, 13]: 0.3397 and 0.3356 and 0.3208
- GUS activity (hydrolysis rate of MUG) [2, 13]: 0.6574 and 0.6654 and 0.6962
- 1/v [2, 14]: 1.396 and 1.589 and 1.568
- GUS activity (hydrolysis rate of MUG) [2, 14]: 0.1599 and 0.1405 and 0.1424
- 1/v [2, 15]: 0.9143 and 0.8906 and 0.8101
- GUS activity (hydrolysis rate of MUG) [2, 15]: 0.2442 and 0.2507 and 0.2757
- 1/v [2, 16]: 0.5734 and 0.5628 and 0.516
- GUS activity (hydrolysis rate of MUG) [2, 16]: 0.3894 and 0.3968 and 0.4327
- 1/v [2, 17]: 0.4154 and 0.412 and 0.4013
- GUS activity (hydrolysis rate of MUG) [2, 17]: 0.5375 and 0.5419 and 0.5564
- 1/v [2, 18]: 2.375 and 2.7756 and 2.7044
- GUS activity (hydrolysis rate of MUG) [2, 18]: 0.09401 and 0.08045 and 0.08257
- 1/v [2, 19]: 1.493 and 1.508 and 1.184
- GUS activity (hydrolysis rate of MUG) [2, 19]: 0.1495 and 0.1481 and 0.1887
- 1/v [2, 20]: 0.8717 and 0.8385 and 0.8277
- GUS activity (hydrolysis rate of MUG) [2, 20]: 0.2562 and 0.2663 and 0.2698
- 1/v [2, 21]: 0.5634 and 0.5659 and 0.5111
- GUS activity (hydrolysis rate of MUG) [2, 21]: 0.3964 and 0.3946 and 0.4369
- ΔΔH1–2 (enthalpy penalty of 2 relative to 1) ([3]; EcGUS in Tris buffer): +6.2 kcal mol^−1
- –TΔΔS1–2 (2 relative to 1) ([3]; EcGUS in Tris buffer): –5.6 kcal mol^−1
- entropy contribution to binding ([3]; EcGUS in Tris buffer): +7.1 kcal mol^−1
- ΔΔH1–2 (enthalpy penalty of 2 relative to 1) ([3]; EcGUS in phosphate buffer): +5.5 kcal mol^−1
- –TΔΔS1–2 (2 relative to 1) ([3]; EcGUS in phosphate buffer): –4.6 kcal mol^−1
- entropy contribution to binding ([3]; EcGUS in phosphate buffer): +5.0 kcal mol^−1
- Kd [3, 22]: 60 ± 4.9 nM
- ΔG [3, 22]: –10.01 ± 0.58 kcal/mol
- ΔH [3, 22]: –2.90 ± 0.23 kcal/mol
- —TΔS [3, 22]: –7.11 ± 0.82 kcal/mol
- Kd [3, 23]: 280 ± 50 nM
- ΔG [3, 23]: –8.96 ± 0.09 kcal/mol
- ΔH [3, 23]: –3.99 ± 0.06 kcal/mol
- —TΔS [3, 23]: –4.97 ± 0.15 kcal/mol
- IC50 [4]: 1200 nM
- Ki ([5]; LgGUS, 50 mM sodium acetate pH 4.5, 37 °C): 18800 ± 3920 nM
- 1/v [5, 24]: 0.2959 and 0.2974 and 0.2686
- GUS activity (hydrolysis rate of MUG) [5, 24]: 4192.53 and 4171.53 and 4614.39
- 1/v [5, 25]: 0.2107 and 0.1906 and 0.2077
- GUS activity (hydrolysis rate of MUG) [5, 25]: 5869.97 and 6487.03 and 5954.69
- 1/v [5, 26]: 0.1628 and 0.149 and 0.1679
- GUS activity (hydrolysis rate of MUG) [5, 26]: 7584.59 and 8286.19 and 7358.86
- 1/v [5, 27]: 0.1383 and 0.1264 and 0.1356
- GUS activity (hydrolysis rate of MUG) [5, 27]: 8920.98 and 9760.49 and 9099.17
- 1/v [5, 28]: 0.3501 and 0.314 and 0.3449
- GUS activity (hydrolysis rate of MUG) [5, 28]: 3549.69 and 3952.79 and 3602.4
- 1/v [5, 29]: 0.2306 and 0.2185 and 0.2316
- GUS activity (hydrolysis rate of MUG) [5, 29]: 5367.33 and 5663.13 and 5345.77
- 1/v [5, 30]: 0.1785 and 0.1636 and 0.1746
- GUS activity (hydrolysis rate of MUG) [5, 30]: 6921.34 and 7548.25 and 7076.25
- 1/v [5, 31]: 0.1408 and 0.1323 and 0.1394
- GUS activity (hydrolysis rate of MUG) [5, 31]: 8767.09 and 9326.73 and 8851.1
- 1/v [5, 32]: 0.4229 and 0.3884 and 0.4078
- GUS activity (hydrolysis rate of MUG) [5, 32]: 2945.2 and 3203.76 and 3052.97
- 1/v [5, 33]: 0.2757 and 0.2635 and 0.2787
- GUS activity (hydrolysis rate of MUG) [5, 33]: 4496.55 and 4702.63 and 4448.51
- 1/v [5, 34]: 0.1987 and 0.186 and 0.1977
- GUS activity (hydrolysis rate of MUG) [5, 34]: 6224 and 6644.75 and 6252.92
- 1/v [5, 35]: 0.1513 and 0.1407 and 0.1527
- GUS activity (hydrolysis rate of MUG) [5, 35]: 8157.58 and 8770.43 and 8083.43
- 1/v [5, 36]: 0.6318 and 0.5917 and 0.6372
- GUS activity (hydrolysis rate of MUG) [5, 36]: 1984.8 and 2116.68 and 1968.46
- 1/v [5, 37]: 0.3742 and 0.3532 and 0.3763
- GUS activity (hydrolysis rate of MUG) [5, 37]: 3323.3 and 3518.37 and 3305.44
- 1/v [5, 38]: 0.2434 and 0.2308 and 0.2421
- GUS activity (hydrolysis rate of MUG) [5, 38]: 5087.86 and 5362.93 and 5115.03
- 1/v [5, 39]: 0.1723 and 0.1599 and 0.1688
- GUS activity (hydrolysis rate of MUG) [5, 39]: 7171.31 and 7724.06 and 7316.31

Reference: paper PMC7933434, “Entropy-driven binding of gut bacterial β-glucuronidase inhibitors ameliorates irinotecan-induced toxicity” (Communications Biology, 2021)
